Patent publication US20160008298A1, “XANTHOHUMOL-BASED COMPOUNDS AND COMPOSITIONS THEREOF, AND METHODS OF MAKING AND USING THE SAME” (Oregon State University, priority 2014, published 2016)

Experiments:
C2C12 muscle mouse cells = experiment: Seahorse cell titration assay; assay type: cell-based; details: 2 μM, 20,000 cells/well
Description: As advised by Seahorce Bioscience, running a cell titration assay with FCCP at different concentrations prior to any Seahorse experiment is an important step to determine proper cell density for the cell line used. Then, oligomycin was tested at different concentrations at the proper cell density in order to determine the optimal working concentration. These optimization and titration assays offered starting conditions in determining the uncoupling effects on the mitochondria.
In the cell titration assay, cells were plated at 10,000, 20,000 and 40,000 cells/wells and FCCP was injected at 0.3 μM or 0.5 μM. […] DXN was also injected at 2 μM at 20,000 cells/well to have an idea of its potential effects on OCR.

mice [1] = details: mouse; cited from earlier work
[2] = Low and high XN diet feeding for 12 weeks, body weight and food intake; assay type: in vivo, mouse; details: high-fat fed C57BL/6J mice; for body weight gain compared to vehicle: oral, 12 weeks
Description: FIG. 27 is a graph showing weekly body weights of C57BL/6J mice fed control, low XN (30 mgkg body weight/day) and high XN (60 mg/kg body weight/day) diets for 12 weeks.
FIG. 28 is a graph showing no difference in food intake between treated and untreated mice for the studies from FIG. 27.

mice [3] = experiment: Mouse LD50; assay type: in vivo
rats = experiment: XN administered to rats at human equivalent doses; assay type: in vivo, rat
Description: In particular disclosed embodiments, the human equivalent dose of 180 mg XN/day reduced body weight gain by 14% and reduced fasting plasma glucose by 25% when administered to rats. In some embodiments, the human equivalent dose of 60 or 180 mg XN/day reduced the formation of products of dysfunctional fatty acid oxidation by up to 55% when administered to rats. Solely by way of example, the range 0.1-500 mg described above in Table 2 for XN covers the effective human equivalent doses of 60 mg/day to 180 mg/day of XN.

[4] = human equivalent dose of 180 mg XN/day

SMILES	increase of OCR (C2C12 muscle mouse cells)	LD50 (mice [1]) [mg/kg]	food intake ([2]; 30 and 60 mg/kg)	body weight gain compared to vehicle ([2]; 30 mg/kg (low dose))	body weight gain compared to vehicle ([2]; 60 mg/kg (high dose))	LD50 dose relative to the effective dose level (mice [3])	reduction of body weight gain (rats; [4]) [%]	reduction of fasting plasma glucose (rats; [4]) [%]	reduction of the formation of products of dysfunctional fatty acid oxidation (rats; human equivalent dose of 60 or 180 mg XN/day)
COc1cc(O)c(CC=C(C)C)c(O)c1C(=O)CCc1ccc(O)cc1 [DXN, α,β-dihydroxanthohumol]	204 % of the baseline								
COc1cc(O)c(CC=C(C)C)c(O)c1C(=O)/C=C/c1ccc(O)cc1 [XN, xanthohumol]		> 2000	not altered	gain less weight	gain less weight	more than 50 times	14	25	up to 55%
